Measured values from patent US11730720B2, “ALK5 inhibitors” (THERAVANCE BIOPHARMA R&D IP, LLC, priority 2018, dated 2023).

Key:
[1] = molecular target: T1, recombinant human ALK5 (TGF-βR1) protein (Homo sapiens, UniProt P36897); assay: Biochemical ALK5 (TGF-βR1) assay to measure pKi (LANCE Ultra ULight kinase assay); settings: apparent pKi, converted from pIC50 using the Cheng-Prusoff equation
T1 construct: purchased Life Technologies PR9075A
T1 sequence (P36897 34-503): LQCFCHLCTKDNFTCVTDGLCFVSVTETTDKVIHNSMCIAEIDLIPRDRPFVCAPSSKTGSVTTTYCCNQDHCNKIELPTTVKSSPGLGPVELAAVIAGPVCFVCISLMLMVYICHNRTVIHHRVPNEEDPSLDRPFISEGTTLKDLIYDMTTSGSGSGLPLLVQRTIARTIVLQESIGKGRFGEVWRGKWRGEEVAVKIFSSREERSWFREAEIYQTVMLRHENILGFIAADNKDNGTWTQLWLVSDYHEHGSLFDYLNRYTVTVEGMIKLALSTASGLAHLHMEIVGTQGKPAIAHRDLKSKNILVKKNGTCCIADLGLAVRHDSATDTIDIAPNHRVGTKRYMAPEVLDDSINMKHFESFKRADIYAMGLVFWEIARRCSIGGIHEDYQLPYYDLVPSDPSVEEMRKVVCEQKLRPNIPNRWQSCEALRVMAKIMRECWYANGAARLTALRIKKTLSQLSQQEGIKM
Procedure, shortened: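 TR-FRET kinase format: compound dose range 10 μM–25 pM equilibrated 60 min with human ALK5 and ULight-labelled topoisomerase 2α peptide in HEPES/MgCl2 buffer pH 7.5 with DTT. Reaction started with ATP (125 μM stock, 5× final), 60 min at 37° C, stopped with EDTA/Eu-anti-phospho antibody; pKi derived from pIC50 via Cheng-Prusoff.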

[2] = system: TGF-β-stimulated SMAD3 phosphorylation in BEAS-2B cells; assay: Cellular ALK5 potency assay, inhibition of TGF-β stimulated pSMAD3 formation in BEAS-2B cells; assay type: cell-based; settings: Homo sapiens, inhibition of TGF-β (10 ng/mL) stimulated pSMAD3 formation, 1 hour compound incubation, read-out: BEAS2B pIC50 (converted)
Procedure, shortened: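 Phospho-SMAD3 was quantified by AlphaLISA in lysates of human lung epithelial BEAS-2B cells. Compound was added 1 h (37 °C, HEPES/BSA-supplemented HBSS) before a 30 min challenge with 10 ng/mL TGF-β. Values are pIC50 relative to stimulated cells without compound.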

| SMILES | Ki [1] [nM] | IC50 [2] [nM] |
| --- | --- | --- |
| COCc1cccc(-c2n[nH]cc2-c2ccc3ncc(C4=CCC(N(C)C)CC4)cc3n2)c1 (centres unmarked) [Compound 14-14, 4-(6-(3-(3-(methoxymethyl)phenyl)-1H-pyrazol-4-yl)-1,5-naphthyridin-3-yl)-N,N-dimethylcyclohex-3-en-1-amine] | 0.0398 to 0.316 | 25.1 to 158 |
| CNCCn1cc(-c2cnc3ccc(-c4c[nH]nc4-c4cccc(COC)c4)nc3c2)nn1 [Compound 14-15, 2-(4-(6-(3-(3-(methoxymethyl)phenyl)-1H-pyrazol-4-yl)-1,5-naphthyridin-3-yl)-1H-1,2,3-triazol-1-yl)-N-methylethan-1-amine] | 0.398 to 3.16 | 25.1 to 158 |
| COCc1cccc(-c2n[nH]cc2-c2ccc3ncc(N4CCNCC4)cc3n2)c1 [Compound 14-16, 2-[3-[3-(methoxymethyl)phenyl]-1H-pyrazol-4-yl]-7-piperazin-1-yl-1,5-naphthyridine] | 3.98 to 31.6 | 200 to 1260 |
| COCc1cccc(-c2n[nH]cc2-c2ccc3ncc(NCCN4CCN(C(C)C)CC4)cc3n2)c1 [Compound 14-17, N-[2-(4-isopropylpiperazin-1-yl)ethyl]-6-[3-[3-(methoxymethyl)phenyl]-1H-pyrazol-4-yl]-1,5-naphthyridin-3-amine] | 3.98 to 31.6 | 200 to 1260 |
| COCc1cccc(-c2n[nH]cc2-c2ccc3ncc(-c4cnn([C@H]5CCCC[C@H]5N)c4)cc3n2)c1 [Compound 14-18, (1R,2S)-2-[4-[6-[3-[3-(methoxymethyl)phenyl]-1H-pyrazol-4-yl]-1,5-naphthyridin-3-yl]pyrazol-1-yl]cyclohexanamine] | 0.0398 to 0.316 | 25.1 to 158 |
| COCc1cccc(-c2[nH]cnc2-c2ccc3ncc(NCCN4CCNCC4)cc3n2)c1 [Compound 15-1, 6-(5-(3-(methoxymethyl)phenyl)-1H-imidazol-4-yl)-N-(2-(piperazin-1-yl)ethyl)-1,5-naphthyridin-3-amine] | 3.98 to 31.6 | 200 to 1260 |
| COCc1cccc(-c2[nH]cnc2-c2ccc3ncc(NCCN4CCN(C(C)C)CC4)cc3n2)c1 [Compound 15-2, N-[2-(4-isopropoylpiperazin-1-yl)ethyl]-6-[5-[3-(methoxymethyl)phenyl]-1H-imidazol-4-yl]-1,5-naphthyridin-3-amine] | 3.98 to 31.6 | 200 to 1260 |
| CNCCn1cc(-c2cnc3ccc(-c4nc[nH]c4-c4cccc(COC)c4)nc3c2)cn1 [Compound 15-3, 2-(4-(6-(5-(3-(methoxymethyl)phenyl)-1H-imidazol-4-yl)-1,5-naphthyridin-3-yl)-1H-pyrazol-1-yl)-N-methylethan-1-amine] | 0.0398 to 0.316 | 25.1 to 158 |
| CNCCn1cc(-c2cnc3ccc(-c4c[nH]nc4-c4cc(Cl)ccc4F)cc3c2)cn1 [Compound 16-1, 2-(4-(6-(3-(5-chloro-2-fluorophenyl)-1H-pyrazol-4-yl)quinolin-3-yl)-1H-pyrazol-1-yl)-N-methylethan-1-amine] | ≤ 0.0316 | ≤ 20 |
| Fc1ccc(Cl)cc1-c1n[nH]cc1-c1ccc2ncc(-c3cn[nH]c3)cc2c1 [Compound 16-2, 6-[3-(5-chloro-2-fluoro-phenyl)-1H-pyrazol-4-yl]-3-(1H-pyrazol-4-yl)quinoline] | 0.0398 to 0.316 | ≤ 20 |
| CN1CCN(C2CCN(c3cnc4ccc(-c5c[nH]nc5-c5cc(Cl)ccc5F)cc4c3)CC2)CC1 [Compound 16-4, 6-[3-(5-chloro-2-fluoro-phenyl)-1H-pyrazol-4-yl]-3-[4-(4-methylpiperazin-1-yl)-1-piperidyl]quinoline] | 0.398 to 3.16 | 25.1 to 158 |
| CC(C)N1CCN(CCNc2cnc3ccc(-c4c[nH]nc4-c4cc(Cl)ccc4F)cc3c2)CC1 [Compound 16-5, 6-(3-(5-chloro-2-fluorophenyl)-1H-pyrazol-4-yl)-N-(2-(4-isopropylpiperazin-1-yl)ethyl)quinolin-3-amine] | 0.398 to 3.16 | 25.1 to 158 |
| Fc1ccc(Cl)cc1-c1[nH]cnc1-c1ccc2ncc(-c3cn[nH]c3)cc2c1 [Compound 17-1, 6-(5-(5-chloro-2-fluorophenyl)-1H-imidazol-4-yl)-3-(1H-pyrazol-4-yl)quinoline] | 0.0398 to 0.316 | ≤ 20 |
| CNCCn1cc(-c2cnc3ccc(-c4nc[nH]c4-c4cc(Cl)ccc4F)cc3c2)cn1 [Compound 17-2, 2-[4-[6-[5-(5-chloro-2-fluoro-phenyl)-1H-imidazol-4-yl]-3-quinolyl]pyrazol-1-yl]-N-methyl-ethanamine] | ≤ 0.0316 | 25.1 to 158 |
| CC(C)N1CCN(CCNc2cnc3ccc(-c4nc[nH]c4-c4cc(Cl)ccc4F)cc3c2)CC1 [Compound 17-3, 6-(5-(5-chloro-2-fluorophenyl)-1H-imidazol-4-yl)-N-(2-(4-isopropylpiperazin-1-yl)ethyl)quinolin-3-amine] | 0.398 to 3.16 | 25.1 to 158 |
| Fc1ccc(Cl)cc1-c1[nH]cnc1-c1ccc2ncc(N3CCNCC3)cc2c1 [Compound 17-4, 6-(5-(5-chloro-2-fluorophenyl)-1H-imidazol-4-yl)-3-(piperazin-1-yl)quinoline] | 0.398 to 3.16 | 25.1 to 158 |
| Fc1ccc(Cl)cc1-c1[nH]cnc1-c1ccc2ncc(N3CCCNCC3)cc2c1 [Compound 17-6, 6-[5-(5-chloro-2-fluoro-phenyl)-1H-imidazol-4-yl]-3-(1,4-diazepan-1-yl)quinoline] | 0.398 to 3.16 | 25.1 to 158 |
| CN1CCN(C2CCN(c3cnc4ccc(-c5nc[nH]c5-c5cc(Cl)ccc5F)cc4c3)CC2)CC1 [Compound 17-7, 6-[5-(5-chloro-2-fluoro-phenyl)-1H-imidazol-4-yl]-3-[4-(4-methylpiperazin-1-yl)-1-piperidyl]quinoline] | 0.0398 to 0.316 | 25.1 to 158 |
| Fc1ccc(Cl)cc1-c1[nH]cnc1-c1ccc2ncc(-c3cnc4n3CCN4)cc2c1 [Compound 17-9, 6-(5-(5-chloro-2-fluorophenyl)-1H-imidazol-4-yl)-3-(2,3-dihydro-1H-imidazo[1,2-a]imidazol-5-yl)quinoline] | 0.0398 to 0.316 | 25.1 to 158 |
| Fc1ccc(Cl)cc1-c1[nH]cnc1-c1ccc2ncc(-c3cnc4n3CCNC4)cc2c1 [Compound 17-10, 6-[5-(5-chloro-2-fluoro-phenyl)-1H-imidazol-4-yl]-3-(5,6,7,8-tetrahydroimidazo[1,2-a]pyrazin-3-yl)quinoline] | 0.398 to 3.16 | 25.1 to 158 |
| Fc1ccc(Cl)cc1-c1[nH]cnc1-c1ccc2ncc(-c3cc4n(n3)CCNC4)cc2c1 [Compound 17-11, 6-[5-(5-chloro-2-fluoro-phenyl)-1H-imidazol-4-yl]-3-(4,5,6,7-tetrahydropyrazolo[1,5-a]pyrazin-2-yl)quinoline] | 0.0398 to 0.316 | ≤ 20 |
| Fc1ccc(Cl)cc1-c1[nH]cnc1-c1ccc2ncc(-c3nnn4c3CNCC4)cc2c1 [Compound 17-12, 6-[5-(5-chloro-2-fluoro-phenyl)-1H-imidazol-4-yl]-3-(4,5,6,7-tetrahydrotriazolo[1,5-a]pyrazin-3-yl)quinoline] | 0.398 to 3.16 | 25.1 to 158 |
| Fc1ccc(Cl)cc1-c1[nH]cnc1-c1ccc2ncc(-c3nc4n(n3)CCNC4)cc2c1 [Compound 17-13, 6-[5-(5-chloro-2-fluoro-phenyl)-1H-imidazol-4-yl]-3-(5,6,7,8-tetrahydro-[1,2,4]triazolo[1,5-a]pyrazin-2-yl)quinoline] | 0.0398 to 0.316 | ≤ 20 |
| Fc1ccc(Cl)cc1-c1[nH]cnc1-c1ccc2ncc(-c3cn4c(n3)CNCC4)cc2c1 [Compound 17-14, 6-[5-(5-chloro-2-fluoro-phenyl)-1H-imidazol-4-yl]-3-(5,6,7,8-tetrahydroimidazo[1,2-a]pyrazin-2-yl)quinoline] | 0.0398 to 0.316 | 25.1 to 158 |
| CNCCn1cc(-c2cnc3ccc(-c4nn[nH]c4-c4cc(Cl)ccc4F)cc3c2)cn1 [Compound 18-1, 2-(4-(6-(5-(5-chloro-2-fluorophenyl)-1H-1,2,3-triazol-4-yl)quinolin-3-yl)-1H-pyrazol-1-yl)-N-methylethan-1-amine] | ≤ 0.0316 | 25.1 to 158 |
| Fc1ccc(Cl)cc1-c1[nH]nnc1-c1ccc2ncc(-c3cn[nH]c3)cc2c1 [Compound 18-2, 6-[5-(5-chloro-2-fluoro-phenyl)-1H-triazol-4-yl]-3-(1H-pyrazol-4-yl)quinoline] | 0.0398 to 0.316 | ≤ 20 |
| CC(C)N1CCN(CCNc2cnc3ccc(-c4nn[nH]c4-c4cc(Cl)ccc4F)cc3c2)CC1 [Compound 18-3, 6-(5-(5-chloro-2-fluorophenyl)-1H-1,2,3-triazol-4-yl)-N-(2-(4-isopropylpiperazin-1-yl)ethyl)quinolin-3-amine] | 0.398 to 3.16 | 25.1 to 158 |
| Fc1ccc(Cl)cc1-c1[nH]nnc1-c1ccc2ncc(N3CCNCC3)cc2c1 [Compound 18-5, 6-[5-(5-chloro-2-fluoro-phenyl)-1H-triazol-4-yl]-3-piperazin-1-yl-quinoline] | 0.398 to 3.16 | 25.1 to 158 |
